From ChEMBL document CHEMBL1157484, “Protein subtype-targeting through ligand epimerization: talose-selectivity of galectin-4 and galectin-8” (Bioorg Med Chem Lett, 2008)

Key:
[1] = Binding affinity to human galectin4C by fluorescence polarization assay
[2] = Binding affinity to human galectin9N by fluorescence polarization assay
[3] = molecular target: T1, Galectin-2 (Homo sapiens, UniProt P05162); test: Binding affinity to human galectin2 by fluorescence polarization assay
T1 sequence (P05162 whole entry): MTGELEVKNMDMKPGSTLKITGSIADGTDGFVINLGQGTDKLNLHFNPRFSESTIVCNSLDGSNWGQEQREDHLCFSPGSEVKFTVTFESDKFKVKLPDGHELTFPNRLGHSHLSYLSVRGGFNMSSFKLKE

[4] = Binding affinity to human galectin8N by fluorescence polarization assay
[5] = Binding affinity to human galectin4N by fluorescence polarization assay
[6] = molecular target: Galectin-1 (Homo sapiens, UniProt P09382); test: Binding affinity to human galectin1 by fluorescence polarization assay
[7] = molecular target: Galectin-3 (Homo sapiens, UniProt P17931); test: Binding affinity to human galectin3 by fluorescence polarization assay
Chain of Galectin-3 (P17931 whole entry): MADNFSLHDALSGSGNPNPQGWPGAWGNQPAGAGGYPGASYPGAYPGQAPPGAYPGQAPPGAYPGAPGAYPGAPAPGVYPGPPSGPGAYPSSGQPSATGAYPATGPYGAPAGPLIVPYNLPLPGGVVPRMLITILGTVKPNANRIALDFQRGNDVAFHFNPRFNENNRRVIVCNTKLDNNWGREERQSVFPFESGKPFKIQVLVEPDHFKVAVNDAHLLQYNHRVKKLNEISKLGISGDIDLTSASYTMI

Chain of Galectin-1 (P09382 whole entry): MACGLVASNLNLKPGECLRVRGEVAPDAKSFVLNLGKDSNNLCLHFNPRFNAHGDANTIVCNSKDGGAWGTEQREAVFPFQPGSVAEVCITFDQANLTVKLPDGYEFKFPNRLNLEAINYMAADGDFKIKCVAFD

Kd [1] [mM] | Kd [2] [mM] | Kd [3] [mM] | Kd [4] [mM] | Kd [5] [mM] | Kd [6] [mM] | Kd [7] [mM] | SMILES
> 10 | 1.2 | 13 | 6.3 | 6.6 |  |  | CO[C@@H]1O[C@H](CO)[C@H](O)[C@H](O)[C@H]1O
1.6 | > 4 | > 4 | > 4 | > 4 | > 4 | 0.55 | CO[C@@H]1O[C@H](CO)[C@H](O)[C@H](OC(=O)c2ccc(C)cc2)[C@@H]1OC(C)=O
> 4 | > 4 | 1.5 |  | > 4 | > 4 | 2.3 | CO[C@@H]1O[C@H](CO)[C@H](O)[C@H](OC(=O)c2ccc(C)cc2)[C@@H]1O[PH](=O)O
> 4 | > 4 | > 4 | 1 | > 4 | > 4 | 0.6 | CO[C@@H]1O[C@H](CO)[C@H](O)[C@H](OC(=O)c2ccc(C)cc2)[C@@H]1OP(=O)(O)OC
 | > 4 |  | 0.4 | > 4 | 2 | 1.4 | CO[C@@H]1O[C@H](CO)[C@H](O)[C@H](OC(=O)c2ccc(C)cc2)[C@@H]1O
0.16 | > 4 | > 4 | 3.6 | > 4 | 1.8 | 0.7 | CO[C@@H]1O[C@H](CO)[C@H](O)[C@H](OC(=O)c2ccc(C)cc2)[C@@H]1OC(=O)c1ccc(C)cc1
10 | 4.6 | > 10 | 1.5 | > 10 |  |  | CO[C@@H]1O[C@H](CO)[C@H](O)[C@H](O)[C@@H]1O
3 | > 4 | > 4 | 1.1 | > 4 | > 4 | 0.25 | CO[C@@H]1O[C@H](CO)[C@H](O)[C@H](OC(=O)c2ccc(C)cc2)[C@@H]1OS(=O)(=O)O
